Measured values published in ChEMBL document CHEMBL3992504 (Eur J Med Chem, 2017).

Assays:
[1] = molecular target: ALK tyrosine kinase receptor (Homo sapiens) (UniProt Q9UM73)
Description: Inhibition of EML4 fused ALK in human NCI-H3122 cells assessed as cell growth inhibition measured after 72 hrs by SRB assay

[2] = molecular target: ALK tyrosine kinase receptor (Homo sapiens) (UniProt Q9UM73); remark: listed apart in the source
Description: Inhibition of EML4 fused ALK (unknown origin) expressed in mouse BA/F3 cells assessed as cell growth inhibition measured after 72 hrs by SRB assay

[3] = AUCt in rat at 10 mg/kg administered via oral gavage by LC/MS/MS analysis; assay type: ADME, organism-based; settings: in vivo
[4] = system: Mus musculus; test: Toxicity in BALB/c nu/nu mouse xenografted with human NCI-H3122 cells assessed as change in body weight at 50 mg/kg administered via oral gavage for 14 days; assay type: organism-based; settings: in vivo, 336 h
[5] = AUC (infinity) in rat at 10 mg/kg administered via oral gavage by LC/MS/MS analysis; assay type: ADME, organism-based; design: dose 10 mg/kg, time infinity, route oral; settings: in vivo
[6] = Half life in rat at 10 mg/kg administered via oral gavage by LC/MS/MS analysis; assay type: ADME, organism-based; settings: in vivo
[7] = Inhibition of ALK T1151-L1152 insT mutant (unknown origin) using peptide as substrate measured after 30 mins by fluorescence assay; design: species or system Homo sapiens
[8] = Tmax in rat at 10 mg/kg administered via oral gavage by LC/MS/MS analysis; assay type: ADME, organism-based; settings: in vivo
[9] = molecular target: ALK tyrosine kinase receptor (Homo sapiens, UniProt Q9UM73, G1269A); test: Inhibition of ALK G1269A mutant (unknown origin) using peptide as substrate measured after 30 mins by fluorescence assay
Sequence of ALK tyrosine kinase receptor (Homo sapiens, UniProt Q9UM73, G1269A) (Q9UM73 19-1620 G1269A limits assumed): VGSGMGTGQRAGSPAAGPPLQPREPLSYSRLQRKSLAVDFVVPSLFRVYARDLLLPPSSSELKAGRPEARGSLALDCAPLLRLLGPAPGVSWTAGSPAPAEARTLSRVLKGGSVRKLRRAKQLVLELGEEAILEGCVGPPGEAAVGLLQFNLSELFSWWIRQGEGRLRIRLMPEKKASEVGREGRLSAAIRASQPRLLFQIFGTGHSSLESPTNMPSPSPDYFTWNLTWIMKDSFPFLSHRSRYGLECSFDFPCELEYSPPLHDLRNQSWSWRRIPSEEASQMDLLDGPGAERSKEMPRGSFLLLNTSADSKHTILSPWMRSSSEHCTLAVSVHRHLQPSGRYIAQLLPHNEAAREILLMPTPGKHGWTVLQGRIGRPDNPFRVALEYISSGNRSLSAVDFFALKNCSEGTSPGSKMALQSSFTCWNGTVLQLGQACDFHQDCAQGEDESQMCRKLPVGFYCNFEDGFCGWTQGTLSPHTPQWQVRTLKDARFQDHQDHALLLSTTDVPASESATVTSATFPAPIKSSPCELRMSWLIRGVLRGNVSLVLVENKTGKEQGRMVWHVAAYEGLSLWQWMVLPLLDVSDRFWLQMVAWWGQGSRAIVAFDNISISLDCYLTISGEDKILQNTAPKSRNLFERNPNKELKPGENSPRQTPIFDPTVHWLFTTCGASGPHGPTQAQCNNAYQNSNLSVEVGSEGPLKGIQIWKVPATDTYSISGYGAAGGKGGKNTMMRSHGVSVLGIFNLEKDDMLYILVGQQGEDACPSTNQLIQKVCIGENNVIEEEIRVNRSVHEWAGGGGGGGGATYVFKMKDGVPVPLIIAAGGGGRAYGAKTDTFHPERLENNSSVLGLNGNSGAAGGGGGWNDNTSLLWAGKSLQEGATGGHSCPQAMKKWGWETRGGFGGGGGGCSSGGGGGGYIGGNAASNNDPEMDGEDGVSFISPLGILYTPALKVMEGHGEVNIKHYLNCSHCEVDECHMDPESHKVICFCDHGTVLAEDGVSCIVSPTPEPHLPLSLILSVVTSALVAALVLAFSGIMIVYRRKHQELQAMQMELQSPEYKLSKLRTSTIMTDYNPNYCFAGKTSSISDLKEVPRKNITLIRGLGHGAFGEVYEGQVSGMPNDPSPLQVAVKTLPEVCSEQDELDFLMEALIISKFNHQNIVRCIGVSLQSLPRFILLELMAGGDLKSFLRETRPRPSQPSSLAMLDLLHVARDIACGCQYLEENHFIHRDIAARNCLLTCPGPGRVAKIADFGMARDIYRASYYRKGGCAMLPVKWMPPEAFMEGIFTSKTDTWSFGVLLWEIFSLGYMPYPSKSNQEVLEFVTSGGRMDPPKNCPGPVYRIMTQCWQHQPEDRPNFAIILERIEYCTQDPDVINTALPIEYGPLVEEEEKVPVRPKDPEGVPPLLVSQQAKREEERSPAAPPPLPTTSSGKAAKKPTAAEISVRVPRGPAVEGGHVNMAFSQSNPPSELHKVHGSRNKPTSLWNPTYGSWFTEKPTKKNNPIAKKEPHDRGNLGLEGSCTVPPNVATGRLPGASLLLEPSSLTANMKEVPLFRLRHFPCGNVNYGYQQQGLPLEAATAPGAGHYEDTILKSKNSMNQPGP

[10] = molecular target: ALK tyrosine kinase receptor (Homo sapiens, UniProt Q9UM73, C1156Y); test: Inhibition of ALK C1156Y mutant (unknown origin) using peptide as substrate measured after 30 mins by fluorescence assay
Sequence of ALK tyrosine kinase receptor (Homo sapiens, UniProt Q9UM73, C1156Y) (Q9UM73 19-1620 C1156Y limits assumed): as the sequence (Q9UM73 19-1620 G1269A limits assumed) above, with C1138Y, A1251G counted along it

[11] = Cmax in rat at 10 mg/kg administered via oral gavage by LC/MS/MS analysis; assay type: ADME, organism-based; design: dose 10 mg/kg, route oral; settings: in vivo
[12] = molecular target: ALK tyrosine kinase receptor (Homo sapiens, UniProt Q9UM73, G1202R); test: Inhibition of ALK G1202R mutant (unknown origin) using peptide as substrate measured after 30 mins by fluorescence assay
Sequence of ALK tyrosine kinase receptor (Homo sapiens, UniProt Q9UM73, G1202R) (Q9UM73 19-1620 G1202R limits assumed): as the sequence (Q9UM73 19-1620 G1269A limits assumed) above, with G1184R, A1251G counted along it

[13] = molecular target: ALK tyrosine kinase receptor (Homo sapiens, UniProt Q9UM73, F1174L); test: Inhibition of ALK F1174L mutant (unknown origin) using peptide as substrate measured after 30 mins by fluorescence assay
Sequence of ALK tyrosine kinase receptor (Homo sapiens, UniProt Q9UM73, F1174L) (Q9UM73 19-1620 F1174L limits assumed): as the sequence (Q9UM73 19-1620 G1269A limits assumed) above, with F1156L, A1251G counted along it

Sequence of ALK tyrosine kinase receptor (Homo sapiens) (Q9UM73 19-1620 limits assumed): as the sequence (Q9UM73 19-1620 G1269A limits assumed) above, with A1251G counted along it

| Compound | CC50 [1] [nM] | CC50 [2] [nM] | also measured |
| --- | --- | --- | --- |
| COc1cc(CCNC=O)c(C)cc1Nc1ncc(Cl)c(Nc2ccccc2S(=O)(=O)C(C)C)n1 | 68 | 60 | – |
| CNCc1cc(OC)c(Nc2ncc(Cl)c(Nc3ccccc3S(=O)(=O)C(C)C)n2)cc1C | 25 | 15 | – |
| COc1cc(C(C)(C)CN)c(C)cc1Nc1ncc(Cl)c(Nc2ccccc2S(=O)(=O)C(C)C)n1 | 53 | 36 | – |
| Cc1cc(Nc2ncc(Cl)c(Nc3ccccc3S(=O)(=O)C(C)C)n2)c(OC(C)C)cc1C1CCNCC1 [CERITINIB] | – | – | AUC(0-t) [3]: 1380 ng·h/mL; Activity [4]: Non-Toxic; AUC(0-inf) [5]: 2650 ng·h/mL; half-life [6]: 10.3 h; IC50 [7]: 0.63 nM; Tmax [8]: 7.33 h |
| COc1cc(C(C)(C)C#N)c(C)cc1Nc1ncc(Cl)c(Nc2ccccc2S(=O)(=O)C(C)C)n1 | 250 | 250 | – |
| COc1cc(C(C)(C)CNC=O)c(C)cc1Nc1ncc(Cl)c(Nc2ccccc2S(=O)(=O)C(C)C)n1 | 63 | 38 | – |
| COc1cc(CCN(C)C)c(C)cc1Nc1ncc(Cl)c(Nc2ccccc2S(=O)(=O)C(C)C)n1 | 13 | 10 | AUC(0-t) [3]: 3750 ng·h/mL; IC50 [9]: 0.4 nM; Activity [4]: Non-Toxic; AUC(0-inf) [5]: 4250 ng·h/mL; IC50 [10]: 1.1 nM; half-life [6]: 7.48 h; Cmax [11]: 263 ng/mL; IC50 [7]: 0.63 nM; IC50 [12]: 1.8 nM; IC50 [13]: 0.56 nM; Tmax [8]: 4 h |
| COc1cc(CN(C)C)c(C)cc1Nc1ncc(Cl)c(Nc2ccccc2S(=O)(=O)C(C)C)n1 | 37 | 21 | – |
| COc1cc(C(C)(C)NC=O)c(C)cc1Nc1ncc(Cl)c(Nc2ccccc2S(=O)(=O)C(C)C)n1 | 52 | 24 | – |
| COc1cc(C(C)(C)CN(C)C)c(C)cc1Nc1ncc(Cl)c(Nc2ccccc2S(=O)(=O)C(C)C)n1 | 26 | 14 | – |
| CNCCc1cc(OC)c(Nc2ncc(Cl)c(Nc3ccccc3S(=O)(=O)C(C)C)n2)cc1C | 20 | 13 | – |
| COc1cc(C(C)(C)N(C)C)c(C)cc1Nc1ncc(Cl)c(Nc2ccccc2S(=O)(=O)C(C)C)n1 | 35 | 20 | – |
| CNC(C)(C)c1cc(OC)c(Nc2ncc(Cl)c(Nc3ccccc3S(=O)(=O)C(C)C)n2)cc1C | 29 | 15 | – |
| COc1cc(C(C)(C)N)c(C)cc1Nc1ncc(Cl)c(Nc2ccccc2S(=O)(=O)C(C)C)n1 | 12 | 12 | – |
| CNCC(C)(C)c1cc(OC)c(Nc2ncc(Cl)c(Nc3ccccc3S(=O)(=O)C(C)C)n2)cc1C | 41 | 19 | – |
| COc1cc(CNC=O)c(C)cc1Nc1ncc(Cl)c(Nc2ccccc2S(=O)(=O)C(C)C)n1 | – | 15 | – |
| COc1cc(CC#N)c(C)cc1Nc1ncc(Cl)c(Nc2ccccc2S(=O)(=O)C(C)C)n1 | 74 | 61 | – |
| COc1cc(CCN)c(C)cc1Nc1ncc(Cl)c(Nc2ccccc2S(=O)(=O)C(C)C)n1 | 60 | 68 | – |
